Test results published in patent publication US4642341A, “Carbapenem antibiotics” (priority 1985, dated 1987).
Converted amounts (≈) assume the structure as drawn. Like-named read-outs stand apart in the source and are kept apart here.

What was measured:
P. rettgeri A22424 = test: Minimum Inhibitory Concentration, tube dilution; assay type: cell-based; details: Providencia rettgeri, overnight 37° C., table 6, read-out: MIC
[1] = system: S. aureus A15097 (Meth-res.); test: Minimum Inhibitory Concentration, tube dilution; assay type: cell-based; details: Staphylococcus aureus, table 6
[2] = Half-life in phosphate buffer pH 7.4; assay type: physicochemical; details: phosphate buffer; for half-life at 100 µM: pH 7.4, τ1/2 (half-life)
Protocol: To a solution of p-nitrobenzyl 3-[2-(1-pyridinium)ethylthio)]-6α[1-(R)-hydroxyethyl]-7-oxo-1-azabicyclo(3.2.0)hept-2-ene-carboxylate diphenylphosphate (0.16 g, 0.22 mmol) in wet tetrahydrofuran (10mL) was added ether (10mL), potassium phosphate monobasic-sodium hydroxide buffer pH 7.4 (16 mL, 0.05 M) and 10% palladium on charcoal (0.16 g). The resulting mixture was hydrogenated under 40 psi for 1 h at 25° C. The two phases were separated and the organic phase was extracted with water (2×3 mL). The aqeuous solutions were combined, washed with ether (2×10 ml) and poured on top of a column (1.5×6.2 cm) pf μ-bondapak C-18 after the traces of organic solvents have been removed under vacuum. Elution of the column with water gave after lyophylization of the appropriate fractions a yellowish powder 0.062 g (84%), ir (KBr) .nu.max : 3700-3000 (OH), 1755 (C--O of β-lactam), 1630 (pyridinium), 1590 cm^-1 (carboxylate), ^1 Hmr (D2 O): 1.22 (3H, d, J=6.4 Hz, CH3 CHOH), 2.92 (d, J=9.1 Hz, H-4), 2.97 (d, J=9.1 Hz, H-4), 3.20 (dd, J=2.5 Hz, J=6.1 Hz, H-6), 3.44 (t, J=6.0 Hz, CH2 S), 3.93 (dd, J=9.1 Hz, J=2.5 Hz, H-5), 4.82 (t, J=6.0 Hz, CH2 N^+), 8.04 (m, Hm of pyridinium), 8.5 (m, Hp of pyridinium), 8.82 (dd, J=3.2. Hz, J=1.1 Hz, Ho of pyridinium), uv (H2 O) λ max : 259 (ε5800), 296 (ε7030) mμ, .tau.1/2 =13.5 h (measured at a concentration of 10^-4 M in phosphate buffer pH 7.4 at 36.8° C.).

E. cloacae A-9656 = test: Minimum Inhibitory Concentration, tube dilution; assay type: cell-based; details: Enterobacter cloacae, A9656; overnight 37° C.; table 6
B. fragilis A22862 = test: Minimum Inhibitory Concentration, tube dilution; assay type: cell-based; details: Bacteroides fragilis, overnight 37° C., table 6
S. pyogenes A-9604 = test: Minimum Inhibitory Concentration, tube dilution; assay type: cell-based; details: Streptococcus pyogenes, A9604, overnight 37° C.; table 6
S. aureus A9606 = test: Protective effect, intramuscular treatment of infected mice (table 7); assay type: in vivo; details: Staphylococcus aureus, A9606, im; i.m. 0 to 2 hours post-infection; ~1×10^9 organisms i.p.; read-out: PD50 /treatment
Protocol: (§1) Drugs were administered i.m. 0 to 2 hours post-infection (A9606) or 1 and 3.5 hours post-infection for the others.

P. mirabilis A9900 = test: as above; assay type: in vivo; details: Proteus mirabilis, A9900, im; i.m. 1 and 3.5 hours post-infection; ~1×10^7 organisms i.p.; read-out: PD50 /treatment
Protocol: as §1

P. aeruginosa A20481 = test: as above; assay type: in vivo; details: Pseudomonas aeruginosa, A20481, im; i.m. 1 and 3.5 hours post-infection; ~1×10^5 organisms i.p.; read-out: PD50 /treatment
Protocol: as §1

S. aureus A-9537 = test: Minimum Inhibitory Concentration, tube dilution; assay type: cell-based; details: Staphylococcus aureus, table 6, read-out: MIC
P. aeruginosa A9843A = test: animal or person; assay type: in vivo, mice; details: Pseudomonas aeruginosa, in Mus musculus, im, 3.5 h, read-out: PD50 /treatment
Protocol: as §1

[3] = system: S. aureus A-9606 (Pen-res.); test: Minimum Inhibitory Concentration, tube dilution; assay type: cell-based; details: Staphylococcus aureus, Pen-res; table 6
H. influenzae A-9833 = test: Minimum Inhibitory Concentration, tube dilution; assay type: cell-based; details: Haemophilus influenzae, A9833; overnight 37° C.; table 6; read-out: MIC
K. pneumoniae A20468 = test: Minimum Inhibitory Concentration, tube dilution; assay type: cell-based; details: Klebsiella pneumoniae, A20468, overnight 37° C.; table 6; read-out: MIC
S. faecalis A20688 = test: Minimum Inhibitory Concentration, tube dilution; assay type: cell-based; details: Enterococcus faecalis, A20688, overnight 37° C.; table 6; read-out: MIC
B. fragilis A22696 = test: Minimum Inhibitory Concentration, tube dilution; assay type: cell-based; details: Bacteroides fragilis, overnight 37° C., table 6, read-out: MIC
P. aeruginosa A-9843A = test: Minimum Inhibitory Concentration, tube dilution; assay type: cell-based; details: Pseudomonas aeruginosa, A9843A, overnight 37° C.; table 6; read-out: MIC
E. coli A15119 = test: Minimum Inhibitory Concentration, tube dilution; assay type: cell-based; details: Escherichia coli, A15119, overnight 37° C.; table 6
E. coli A20341-1 = test: Minimum Inhibitory Concentration, tube dilution; assay type: cell-based; details: Escherichia coli, A203411, overnight 37° C.; table 6
P. mirabilis A-9900 = test: Minimum Inhibitory Concentration, tube dilution; assay type: cell-based; details: Proteus mirabilis, A9900, overnight 37° C.; table 6
S. pneumoniae A-9585 = test: Minimum Inhibitory Concentration, tube dilution; assay type: cell-based; details: Streptococcus pneumoniae, A9585, overnight 37° C.; table 6
E. cloacae A9659 = test: Minimum Inhibitory Concentration, tube dilution; assay type: cell-based; details: Enterobacter cloacae, A9659, overnight 37° C.; table 6; read-out: MIC
P. aeruginosa A21213 = test: Minimum Inhibitory Concentration, tube dilution; assay type: cell-based; details: Pseudomonas aeruginosa, A21213, overnight 37° C.; table 6; read-out: MIC
M. morganii A15153 = test: Minimum Inhibitory Concentration, tube dilution; assay type: cell-based; details: Morganella morganii, A15153, overnight 37° C.; table 6
H. influenzae A21518 = test: Minimum Inhibitory Concentration, tube dilution; assay type: cell-based; details: Haemophilus influenzae, overnight 37° C., table 6
P. vulgaris A21559 = test: Minimum Inhibitory Concentration, tube dilution; assay type: cell-based; details: Proteus vulgaris, A21559, overnight 37° C.; table 6
[4] = Pharmacokinetic parameters in the mouse after intramuscular dose; assay type: in vivo, mice; details: im, 20 mg/kg
Source text: Also shown is the urinary recovery in the mice.
Compounds were solubilized in 0.1 M phosphate buffer pH 7.

SMILES | MIC (P. rettgeri A22424) [µg/mL] | MIC [1] [µg/mL] | half-life at 100 µM [2] [h] | MIC (E. cloacae A-9656) [µg/mL] | MIC (B. fragilis A22862) [µg/mL] | MIC (S. pyogenes A-9604) [µg/mL] | ED50 (S. aureus A9606) [mg/kg] | ED50 (P. mirabilis A9900) [mg/kg] | ED50 (P. aeruginosa A20481) [mg/kg] | MIC (S. aureus A-9537; A9537, 50% serum) [µg/mL] | MIC (S. aureus A-9537; A9537, overnight 37° C.) [µg/mL] | ED50 (P. aeruginosa A9843A) [mg/kg] | MIC [3] [µg/mL] | MIC (H. influenzae A-9833) [µg/mL] | MIC (S. faecalis A20688) [µg/mL] | MIC (B. fragilis A22696) [µg/mL] | MIC (P. aeruginosa A-9843A) [µg/mL] | MIC (E. coli A15119) [µg/mL] | MIC (E. coli A20341-1) [µg/mL] | MIC (S. pneumoniae A-9585) [µg/mL] | further results
CC(C[n+]1ccccc1)SC1=C(C(=O)[O-])N2C(=O)[C@H]([C@@H](C)O)[C@H]2C1 (single isomer, unassigned) [Ex. 15 (cmp. "B")] | 0.06 (≈ 0.172 µM) | 0.03 (≈ 0.0861 µM) | 12.6 | 0.06 (≈ 0.172 µM) |  |  |  |  |  |  |  |  |  |  |  |  |  |  |  |  | 
Cc1cc(C)c[n+](CCSC2=C(C(=O)[O-])N3C(=O)[C@H]([C@@H](C)O)[C@H]3C2)c1 [Example 4] | 0.5 (≈ 1.38 µM) | > 63 | 16.9 | 0.25 (≈ 0.69 µM) | 0.06 (≈ 0.166 µM) | 0.03 (≈ 0.0828 µM) | 0.4 | ~22 | > 5 | 0.03 (≈ 0.0828 µM) | 0.03 (≈ 0.0828 µM) | 5 | 0.5 (≈ 1.38 µM) | > 32 | 0.5 (≈ 1.38 µM) | 0.25 (≈ 0.69 µM) | 32 (≈ 88.3 µM) | 0.06 (≈ 0.166 µM) | 0.06 (≈ 0.166 µM) | 0.03 (≈ 0.0828 µM) | MIC (K. pneumoniae A20468): 0.25 µg/mL (≈ 0.69 µM); MIC (P. mirabilis A-9900): 0.25 µg/mL (≈ 0.69 µM); MIC (E. cloacae A9659): 0.25 µg/mL (≈ 0.69 µM); MIC (P. aeruginosa A21213): 2 µg/mL (≈ 5.52 µM); MIC (M. morganii A15153): 0.25 µg/mL (≈ 0.69 µM); MIC (H. influenzae A21518): > 32 µg/mL; MIC (P. vulgaris A21559): 0.03 µg/mL (≈ 0.0828 µM); AUC ([4]; blood): 5500 ng·h/mL; Cmax ([4]; blood): 11400 ng/mL; half-life ([4]; blood, read-out: T1/2 (blood)): 0.173 h; dose excreted ([4]; urine, read-out: Urine Recovery): 49 ± 6%
C[C@@H](O)[C@H]1C(=O)N2C(C(=O)[O-])=C(SCC[n+]3cccc(CO)c3)C[C@H]12 [Example 5, (5R,6S)-3-[[2-(3-hydroxymethylpyridino)ethyl]thio]-6-[(R)-1-hydroxyethyl]-7-oxo-1-azabicyclo[3.2.0]hept-2-ene-2-carboxylate] |  | > 63 |  |  | 0.06 (≈ 0.165 µM) | 0.03 (≈ 0.0823 µM) | 0.5 | 22 | 0.8 | 0.06 (≈ 0.165 µM) | 0.03 (≈ 0.0823 µM) | 0.9 | 0.03 (≈ 0.0823 µM) | > 32 | 0.5 (≈ 1.37 µM) | 0.5 (≈ 1.37 µM) | 2 (≈ 5.49 µM) | 0.06 (≈ 0.165 µM) | 0.06 (≈ 0.165 µM) | 0.03 (≈ 0.0823 µM) | MIC (H. influenzae A21518): > 32 µg/mL; MIC (P. vulgaris A21559): 0.06 µg/mL (≈ 0.165 µM); half-life ([2]; pH 7.4, t1/2 (half-life)): 14 h
